Data as given in ChEMBL document CHEMBL4219073, “Development of selective inhibitors for the treatment of rheumatoid arthritis: (R)-3-(3-(Methyl(7H-pyrrolo[2,3-d]pyrimidin-4-yl)amino)pyrrolidin-1-yl)-3-oxopropanenitrile as a JAK1-selective inhibitor” (Bioorg Med Chem, 2018).

Key:
[1] = biological target: Tyrosine-protein kinase JAK1 (Homo sapiens, UniProt P23458)
Description: Inhibition of recombinant human JAK1 (866-end residues) in presence of ATP

[2] = biological target: Tyrosine-protein kinase JAK2 (Homo sapiens, UniProt O60674); type: ADME
Description: Inhibition of recombinant human JAK2 (808-end residues) in presence of ATP

[3] = in vitro; details: mouse, microsomes
Description: Metabolic stability in mouse liver microsomes assessed as parent compound remaining after 30 mins

[4] = in vitro; details: human, microsomes
Description: Metabolic stability in human liver microsomes assessed as parent compound remaining after 30 mins

[5] = in vitro; details: dog, microsomes
Description: Metabolic stability in dog liver microsomes assessed as parent compound remaining after 30 mins

[6] = in vitro; details: rat, microsomes
Description: Metabolic stability in rat liver microsomes assessed as parent compound remaining after 30 mins

Sequence of Tyrosine-protein kinase JAK2 (O60674 whole entry): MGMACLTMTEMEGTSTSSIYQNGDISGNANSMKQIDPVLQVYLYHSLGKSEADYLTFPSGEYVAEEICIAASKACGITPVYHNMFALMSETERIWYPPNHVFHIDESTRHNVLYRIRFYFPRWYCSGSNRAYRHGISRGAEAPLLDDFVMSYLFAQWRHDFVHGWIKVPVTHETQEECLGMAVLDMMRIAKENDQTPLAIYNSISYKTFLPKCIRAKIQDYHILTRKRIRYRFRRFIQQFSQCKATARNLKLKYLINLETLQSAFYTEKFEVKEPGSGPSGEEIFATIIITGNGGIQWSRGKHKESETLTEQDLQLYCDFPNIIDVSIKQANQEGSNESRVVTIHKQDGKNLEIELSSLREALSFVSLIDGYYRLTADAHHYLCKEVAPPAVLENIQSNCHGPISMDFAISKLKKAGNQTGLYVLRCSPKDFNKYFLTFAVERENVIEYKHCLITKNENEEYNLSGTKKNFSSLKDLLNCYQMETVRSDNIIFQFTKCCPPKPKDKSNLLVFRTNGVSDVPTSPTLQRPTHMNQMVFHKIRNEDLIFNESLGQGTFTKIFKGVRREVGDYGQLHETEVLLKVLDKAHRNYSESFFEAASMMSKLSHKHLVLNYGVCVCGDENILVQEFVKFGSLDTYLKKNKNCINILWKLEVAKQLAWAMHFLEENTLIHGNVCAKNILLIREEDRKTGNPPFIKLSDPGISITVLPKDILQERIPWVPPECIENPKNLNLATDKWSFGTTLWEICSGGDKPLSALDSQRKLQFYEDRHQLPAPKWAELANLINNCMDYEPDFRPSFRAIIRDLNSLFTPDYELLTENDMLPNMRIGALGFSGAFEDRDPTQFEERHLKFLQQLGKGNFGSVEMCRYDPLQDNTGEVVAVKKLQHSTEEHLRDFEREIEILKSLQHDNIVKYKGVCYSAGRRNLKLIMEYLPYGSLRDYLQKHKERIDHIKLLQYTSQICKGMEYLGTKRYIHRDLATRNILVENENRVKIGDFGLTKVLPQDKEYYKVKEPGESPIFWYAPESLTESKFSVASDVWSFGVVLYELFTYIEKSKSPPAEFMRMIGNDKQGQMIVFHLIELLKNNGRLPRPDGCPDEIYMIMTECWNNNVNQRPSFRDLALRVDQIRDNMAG
Sequence of Tyrosine-protein kinase JAK1 (P23458 whole entry): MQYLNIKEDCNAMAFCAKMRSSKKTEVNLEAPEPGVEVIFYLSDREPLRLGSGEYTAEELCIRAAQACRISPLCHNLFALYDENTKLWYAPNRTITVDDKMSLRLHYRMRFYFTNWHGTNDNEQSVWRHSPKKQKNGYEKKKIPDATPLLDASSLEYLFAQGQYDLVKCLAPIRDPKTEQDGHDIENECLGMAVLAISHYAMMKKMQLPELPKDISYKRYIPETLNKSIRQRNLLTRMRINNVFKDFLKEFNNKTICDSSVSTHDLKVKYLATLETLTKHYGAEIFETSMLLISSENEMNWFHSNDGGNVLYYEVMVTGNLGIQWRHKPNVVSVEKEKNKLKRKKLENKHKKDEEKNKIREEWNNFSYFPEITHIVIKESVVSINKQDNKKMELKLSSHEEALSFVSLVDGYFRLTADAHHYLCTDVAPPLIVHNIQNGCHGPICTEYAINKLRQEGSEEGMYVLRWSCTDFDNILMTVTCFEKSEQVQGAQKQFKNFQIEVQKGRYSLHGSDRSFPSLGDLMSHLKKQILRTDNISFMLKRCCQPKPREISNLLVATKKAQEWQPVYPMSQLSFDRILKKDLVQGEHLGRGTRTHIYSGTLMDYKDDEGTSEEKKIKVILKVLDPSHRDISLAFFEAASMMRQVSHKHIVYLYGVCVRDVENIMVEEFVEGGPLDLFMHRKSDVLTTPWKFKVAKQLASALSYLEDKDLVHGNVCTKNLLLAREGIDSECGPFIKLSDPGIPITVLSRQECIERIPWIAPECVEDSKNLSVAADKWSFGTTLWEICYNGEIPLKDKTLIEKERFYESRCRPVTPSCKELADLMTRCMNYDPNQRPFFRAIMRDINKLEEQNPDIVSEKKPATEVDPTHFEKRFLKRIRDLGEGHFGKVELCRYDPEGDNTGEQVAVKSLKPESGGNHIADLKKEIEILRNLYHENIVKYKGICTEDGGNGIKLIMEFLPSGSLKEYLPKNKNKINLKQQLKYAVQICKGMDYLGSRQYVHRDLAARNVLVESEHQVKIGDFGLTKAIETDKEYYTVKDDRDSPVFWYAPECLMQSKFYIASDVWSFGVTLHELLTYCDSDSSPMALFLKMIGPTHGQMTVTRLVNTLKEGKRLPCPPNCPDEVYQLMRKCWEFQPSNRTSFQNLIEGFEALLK

SMILES	IC50 [1] [nM]	IC50 [2] [nM]	remaining at 0.5 h [3] [%]	remaining at 0.5 h [4] [%]	remaining at 0.5 h [5] [%]	remaining at 0.5 h [6] [%]
CN(c1ncnc2[nH]ccc12)[C@@H]1CCN(C(=O)Nc2ccccc2)C1	22	550				
N#CCC(=O)N1CC[C@@H](N(CC2CC2)c2ncnc3[nH]ccc23)C1	160	1700				
CCCS(=O)(=O)N1CC[C@@H](N(C)c2ncnc3[nH]ccc23)C1	34	460				
CN(c1ncnc2[nH]ccc12)[C@@H]1CCN(S(=O)(=O)c2cccc(C#N)c2)C1	4.1	57	10	26.3	31.6	3.7
CCS(=O)(=O)N1CC[C@@H](N(C)c2ncnc3[nH]ccc23)C1	79	2400				
CN(c1ncnc2[nH]ccc12)[C@@H]1CCN(S(=O)(=O)c2ccc([N+](=O)[O-])cc2)C1	3.6	89				
CN(c1ncnc2[nH]ccc12)[C@@H]1CCN(S(C)(=O)=O)C1	70	4700				
CN(c1ncnc2[nH]ccc12)[C@@H]1CCN(S(=O)(=O)c2ccc(C#N)cc2)C1	11	1200				
CN(c1ncnc2[nH]ccc12)[C@@H]1CCN(S(=O)(=O)c2ccc(F)cc2)C1	11	110				
Cc1ccc(S(=O)(=O)N2CC[C@@H](N(C)c3ncnc4[nH]ccc34)C2)cc1	19	1800				
CCN(c1ncnc2[nH]ccc12)[C@@H]1CCN(C(=O)CC#N)C1	62	1300				
CN(c1ncnc2[nH]ccc12)[C@@H]1CCN(S(=O)(=O)c2ccc(C(F)(F)F)cc2)C1	9.5	3400	8.4	21	14.2	11.4
CN(c1ncnc2[nH]ccc12)[C@@H]1CCN(S(=O)(=O)N2CCCCC2)C1	66	3900				
CN(c1ncnc2[nH]ccc12)[C@@H]1CCN(S(=O)(=O)c2ccccc2C#N)C1	52	370				
CN(c1ncnc2[nH]ccc12)[C@@H]1CCN(S(=O)(=O)c2ccccc2[N+](=O)[O-])C1	110	1100				
COc1ccc(S(=O)(=O)N2CC[C@@H](N(C)c3ncnc4[nH]ccc34)C2)cc1	26	1500				
CN(c1ncnc2[nH]ccc12)[C@H]1CN(C(=O)CC#N)CC1(C)C	260	5900				
CN(c1ncnc2[nH]ccc12)[C@@H]1CCN(S(=O)(=O)c2ccc3ccccc3c2)C1	13	690				
CC(C)COC(=O)N1CC[C@@H](N(C)c2ncnc3[nH]ccc23)C1	110	4300				
